# Data reported in patent US20110150914A1, “COMPOSITIONS AND METHODS FOR DENGUE VIRUS (DV) TREATMENT AND VACCINATION” (priority 2008, published 2011).
# Ends that are not written are not given here.
# Tests used:
# [1] = test system: DENV peptide-pulsed target cells; experiment: In vivo cytotoxicity assay; conditions: IFN-α/βR^−/− mice infected 7 days previously with 10^10 GE S221; 4 h after i.v. transfer; targets pulsed 0.5 μg/ml
# [2] = biological target: T1, purified H-2 D^b molecules (Mus musculus, UniProt P01899); experiment: MHC peptide-binding assay, purified H-2 D^b; conditions: purified MHC, radiolabeled peptide competition; read-out: Binding affinity (IC50 nM) H2-D^b
# T1 construct: made in house
# Experimental: (§1) Briefly, 0.1-1 nM of radiolabeled peptide was co-incubated at room temperature with 1 μM to 1 nM of purified MHC in the presence of 1-3 μM human β2-microglobulin (Scripps Laboratories) and a mixture of protease inhibitors. After a 2 day incubation, binding of the radiolabeled peptide to the corresponding MHC class I molecule was determined by capturing MHC/peptide complexes on Lumitrac 600 microplates (Greiner Bio-One) coated with either the Y3 (anti-H-2 K^b) or 28-14-8S (anti-H-2 D^b, L^d and D^q) Ab, followed by measurement of bound counts per minute (cpm) using the TopCount microscintillation counter (Packard).
# [3] = test system: CD8^+ T cells; experiment: Intracellular cytokine staining (IFN-γ), splenocytes of S221-infected IFN-α/βR^−/− mice; format: cell-based; conditions: day 7 after 10^10 GE S221
# Experimental: All Ab were purchased from eBioscience with the exception of anti-CD8α-PerCP and anti-CD107a-FITC which were obtained from BD Biosciences. RBC in blood were lysed using RBC lysis buffer (eBioscience). For surface staining, splenocytes or blood cells were washed, incubated with supernatant from 2.4G2-producing hybridoma cells to block Fc receptors, and labeled with anti-CD8α-PerCP, anti-CD44-APC, and anti-CD62L-PE. For intracellular cytokine staining, 10^6 splenocytes or 10^5 blood cells were plated in 96-well U-bottom plates and stimulated with individual DENV peptides (0.1 μg/ml) in the presence of brefeldin A (GolgiPlug, BD Biosciences) for 5 h. For CD107a staining, CD107a-FITC (or rat IgG2a-FITC) was added to the wells at the same time as the peptide. Cells were washed, incubated with 2.4G2 supernatant, labeled with anti-CD8α-PerCP, fixed and permeabilized using the BD Cytofix/Cytoperm Kit, and stained with anti-IFN-γ-APC and anti-TNF-α-PE. Samples were read on a FACS Caliber (BD Biosciences) and analyzed using FloJo software (Tree Star, Inc.)
# The S221-specific CD8^+ T cell response in the IFN-α/βR^−/− mice was studied. […]
# The S221-specific CD8^+ T cell response in IFN-α/βR^−/− mice was further studied. […] Referring to FIGS. 5C, 5E and 5F, the number of splenic CD8^+ T cells in naïve (n=4) and infected (n=7) mice was measured (results described above). […] The data are expressed as the percent±SEM of seven mice tested in three independent experiments.
# The initial epitope identification studies were performed in wild-type mice. […] Cells were then stained for surface CD8 and intracellular IFN-γ and analyzed by flow cytometry. […] Results are expressed as the mean±SEM of 13 wild-type and 7 IFN-α/βR^−/− mice were tested in at least three independent experiments. Referring FIGS. 8C and D, the figures show kinetics of the DENV-specific CD8^+ T cell response as determined by the study. […]
# [4] = biological target: T2, purified H-2 K^b molecules (Mus musculus, UniProt P01901); experiment: MHC peptide-binding assay, purified H-2 K^b; conditions: purified MHC, radiolabeled peptide competition; read-out: Binding affinity (IC50 nM) H2-K^b
# T2 construct: made in house
# Experimental: as §1, with “MHC purification and quantitative assays to measure the binding affinity of peptides to purified H-2 K^b and H-2 D^b molecules were performed as previously described (Sidney et al., Curr Protoc Immunol 18:1813 2001); Vitiello et al., J Immunol 157:5555 (1996)). Briefly,” for “Briefly,”
# To confirm the MHC class I restriction of the 12 identified epitopes, measurements were performed of their MHC binding capacity using purified K^b and D^b molecules in an in vitro binding assay. Seven of the 12 epitopes bound the predicted allele with either high or intermediate affinity, as indicated by an IC50 of <50 nM or <500 nM, respectively. The five remaining epitopes also bound with biologically relevant affinities in the 500-2000 nM range.
# T1 sequence (P61769 21-119): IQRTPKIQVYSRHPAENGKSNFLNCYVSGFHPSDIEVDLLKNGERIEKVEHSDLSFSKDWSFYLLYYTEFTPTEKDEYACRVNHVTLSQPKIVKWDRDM
# T1 sequence (P01899 25-362): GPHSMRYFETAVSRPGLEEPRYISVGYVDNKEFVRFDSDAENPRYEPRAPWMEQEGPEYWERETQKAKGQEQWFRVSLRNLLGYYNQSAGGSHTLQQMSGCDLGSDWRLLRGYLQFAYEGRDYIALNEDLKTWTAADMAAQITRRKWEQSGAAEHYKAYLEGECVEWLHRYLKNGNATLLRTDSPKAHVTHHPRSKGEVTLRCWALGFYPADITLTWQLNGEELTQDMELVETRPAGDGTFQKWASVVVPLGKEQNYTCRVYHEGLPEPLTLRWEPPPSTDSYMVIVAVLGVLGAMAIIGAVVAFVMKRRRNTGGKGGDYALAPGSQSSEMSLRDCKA
# T2 sequence (P61769 21-119): as the sequence (P61769 21-119) above
# T2 sequence (P01901 22-369): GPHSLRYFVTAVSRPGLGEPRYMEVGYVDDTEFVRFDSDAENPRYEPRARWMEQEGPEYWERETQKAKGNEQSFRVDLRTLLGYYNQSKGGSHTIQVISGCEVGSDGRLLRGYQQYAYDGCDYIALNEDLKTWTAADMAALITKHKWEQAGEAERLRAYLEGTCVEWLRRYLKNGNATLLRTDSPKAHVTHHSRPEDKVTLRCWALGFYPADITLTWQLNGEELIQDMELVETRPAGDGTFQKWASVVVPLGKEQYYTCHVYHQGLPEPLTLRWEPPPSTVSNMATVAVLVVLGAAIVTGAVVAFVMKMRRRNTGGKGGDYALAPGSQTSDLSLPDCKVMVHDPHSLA
sequence,measurement,setting,value
YSQVNPITL [NS4B99-107],percentage killing of peptide-pulsed target cells,[1],85%
same,IC50,[2],1.3 nM
same,% of splenic CD8^+ T cells recognizing the peptide,[3],16.5%
same,number of CD8^+ T cells producing IFN-γ (average),[3]; spleen,1.1×10^7 CD8^+ T cells
same,IC50,[4],1890 nM
